The assay has as its target Histone-lysine N-methyltransferase KMT5B (Homo sapiens, UniProt Q4FZB7). In words: Inhibition of human SUV420H1 transcript variant 2 using Nucleosomes and [3H]SAM as substrate incubated for 30 mins to 1 hr by HotSpot kinase assay.

SMILES strings stand for the structures.

Sequence of Histone-lysine N-methyltransferase KMT5B (Q4FZB7 whole entry): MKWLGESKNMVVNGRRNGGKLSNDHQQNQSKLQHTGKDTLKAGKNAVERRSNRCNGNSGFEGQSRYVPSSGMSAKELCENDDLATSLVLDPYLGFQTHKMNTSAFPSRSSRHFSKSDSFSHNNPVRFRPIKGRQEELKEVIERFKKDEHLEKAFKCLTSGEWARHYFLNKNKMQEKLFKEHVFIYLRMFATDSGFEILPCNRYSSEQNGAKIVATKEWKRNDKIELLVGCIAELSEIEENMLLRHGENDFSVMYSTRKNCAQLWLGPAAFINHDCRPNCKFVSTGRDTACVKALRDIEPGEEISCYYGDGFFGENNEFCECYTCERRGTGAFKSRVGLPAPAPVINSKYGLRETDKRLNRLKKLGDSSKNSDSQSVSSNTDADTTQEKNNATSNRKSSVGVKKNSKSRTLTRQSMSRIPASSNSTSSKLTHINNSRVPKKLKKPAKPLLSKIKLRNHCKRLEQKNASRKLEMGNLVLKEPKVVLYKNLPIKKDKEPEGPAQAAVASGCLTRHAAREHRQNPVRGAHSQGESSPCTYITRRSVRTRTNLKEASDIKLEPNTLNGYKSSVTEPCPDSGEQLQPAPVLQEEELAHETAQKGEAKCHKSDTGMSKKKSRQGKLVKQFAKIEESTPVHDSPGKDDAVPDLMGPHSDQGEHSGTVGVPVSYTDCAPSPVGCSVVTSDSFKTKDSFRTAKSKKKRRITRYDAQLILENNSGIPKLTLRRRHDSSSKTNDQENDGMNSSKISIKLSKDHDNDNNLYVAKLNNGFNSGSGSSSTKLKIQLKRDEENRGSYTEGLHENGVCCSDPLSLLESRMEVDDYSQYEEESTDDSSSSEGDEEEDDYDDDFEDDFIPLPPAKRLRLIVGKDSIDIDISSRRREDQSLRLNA

In turn, `Cc1cc(C)c(CNC(=O)c2cc(Cl)c3c(c2C)O[C@@](C)([C@H]2CC[C@H](N(C)C)CC2)O3)c(=O)[nH]1` [(2R)-7-chloro-2-[trans-4-(dimethylamino)cyclohexyl]-N-[(4,6-dimethyl-2-oxo-1,2-dihydropyridin-3-yl)methyl]-2,4-dimethyl-1,3-benzodioxole-5-carboxamide (Valemetostat)] showed a concentration for half-maximal inhibition (IC50) of 1000 nM.

Broadly, the IC50 is the point on the concentration scale where inhibition reaches its midpoint. Lower therefore signals higher potency.

The values above are taken from BindingDB's records for PubMed 28741798 (Daiichi Sankyo Co., Ltd).
